Experiments:
[1] = system: Pseudomonas syringae pv. tomato; test: In vivo preventive test on Pseudomonas syringae pv. tomato (bacterial speck on tomato); details: evaluated 5 or 6 days after inoculation, read-out: efficacy; for pest or weed control at 500 ppm: 500 ppm of active ingredient; for pest or weed control at 31 ppm: 31 ppm of active ingredient
Method in brief: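 Young tomato plants sprayed with compound in acetone/DMSO/Tween diluted in water; solvent-only controls. Inoculated 72 h later by spraying leaves with bacterial suspension; 4 days saturated atmosphere then 1–2 days at 70–80% RH, 22 °C day/20 °C night. Efficacy scored 5–6 days post-inoculation, 0% = control, 100% = no disease.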

[2] = system: Xanthomonas campestris pv. campestris; test: Xanthomonas campestris pv. campestris in vitro cell test; type: cell-based; details: 20 ppm of active ingredient, 24 h incubation, read-out: efficacy (inhibition of bacteria growth)
Method in brief: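 Bacteria from a liquid pre-culture, diluted to a set OD, were grown in LB broth with compound at the required concentrations (final DMSO ≤1%). After 24 h, growth was read spectrometrically. Inhibition was derived from absorbance versus compound-free controls.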

[3] = LogP by HPLC on reversed phase columns (EEC directive 79/831 Annex V.A8); type: physicochemical
Method in brief: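 Reversed-phase HPLC per EEC directive 79/831 Annex V.A8. Calibrated with straight-chain alkan-2-ones (C3–C16) of known LogP, LogP from retention times by linear interpolation between successive alkanones. Lambda-max taken from UV spectra (200–400 nm) at chromatographic peak maxima.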

[4] = system: Xanthomonas campestris pv. campestris; test: In vivo preventive test on Xanthomonas campestris pv. campestris (black rot on cabbage); details: evaluated 8 or 10 days after inoculation, read-out: efficacy; for pest or weed control at 31 ppm: 31 ppm of active ingredient; for pest or weed control at 125 ppm: 125 ppm of active ingredient
Method in brief: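 Young cabbage plants sprayed with compound in acetone/DMSO/Tween diluted in water; solvent-only controls. Leaves sprayed with bacterial suspension 72 h later, then held 8 or 10 days at 27° C and 95% relative humidity. Efficacy scored 8 or 10 days post-inoculation, 0% matching controls, 100% meaning no disease.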

Peronospora parasitica = test: In vivo preventive test on Peronospora parasitica (Crucifer downy mildew); details: Hyaloperonospora parasitica, in Brassica oleracea, 120 h, cabbage, evaluated 5 days after inoculation, read-out: efficacy; for pest or weed control at 31 ppm: 31 ppm of active ingredient; for pest or weed control at 125 ppm: 125 ppm of active ingredient; for pest or weed control at 500 ppm: 500 ppm of active ingredient
Method in brief: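 Young cabbage plants were sprayed with compound in acetone/DMSO/Tween diluted with water, then inoculated 72 h later with a Peronospora parasitica spore suspension. Plants were kept 5 days at 20 °C and 100% RH. Efficacy was scored with 0% equal to solvent-treated controls and 100% meaning no disease.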

[5] = system: salicylate responsive promoter sequence of the PR1 (pathogenesis-related protein I) gene (AT2G14610); test: Induction of defense gene expression in Arabidopsis thaliana (PR1 promoter-GFP reporter plants); type: in vivo; details: Arabidopsis thaliana, 72 h, 3rd day after spraying, mock treated leaves set as 1.00, read-out: relative fluorescence value; for fold induction at 75 ppm: 75 ppm of compound
Method in brief: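 Transgenic A. thaliana carrying GFP under the salicylate-responsive PR1 promoter, grown five days, then sprayed with compounds. Whole-plant fluorescence imaged and quantified on day 3 post-spray, expressed relative to mock-treated leaf background set at 1.00.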

[6] = system: Colletotrichum lindemuthianum; test: In vivo preventive test on Colletotrichum lindemuthianum (Antrachnose on bean); details: 144 h, inoculation 72 h after spraying, evaluated 6 days after inoculation, read-out: efficacy; for pest or weed control at 500 ppm: 500 ppm of active ingredient; for pest or weed control at 31 ppm: 31 ppm of active ingredient
Method in brief: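 Young bean plants sprayed preventively with compound in acetone/DMSO/Tween diluted in water, then spore-inoculated 72 h later. Incubation 24 h at 20° C./100% RH, then 5 days at 20° C./90% RH; scored 6 days post-inoculation as % efficacy (0% = solvent-treated control, 100% = no disease).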

[7] = reversed phase HPLC columns, method [a]: LC-UV, in an acidic range, with 0.1% formic acid in water and acetonitrile as eluent (linear gradient from 10% to 95% acetonitrile)
[8] = reversed phase HPLC columns, given in the preparation examples, method not marked
[9] = reversed phase HPLC columns, method [a]: LC-UV, acidic range, 0.1% formic acid in water and acetonitrile as eluent (linear gradient 10% to 95% acetonitrile)

| chromatographic logP [3, 7] | chromatographic logP [3, 8] | chromatographic logP [3, 9] | Compound | pest or weed control at 500 ppm [1] | inhibition at 20 ppm [2] | pest or weed control at 31 ppm [4] | pest or weed control at 31 ppm (Peronospora parasitica) | pest or weed control at 125 ppm (Peronospora parasitica) | pest or weed control at 500 ppm (Peronospora parasitica) | fold induction at 75 ppm [5] | fold induction at 300 ppm [5] | pest or weed control at 125 ppm [4] | pest or weed control at 500 ppm [6] | pest or weed control at 31 ppm [1] | pest or weed control at 31 ppm [6] | chromatographic logP ([3]; method [a]: LC-UV, acidic range, 0.1% formic acid in water and acetonitrile as eluent (linear gradient 10% to 95% acetonitrile)) |
| --- | --- | --- | --- | --- | --- | --- | --- | --- | --- | --- | --- | --- | --- | --- | --- | --- |
| 1.73 |  |  | COC(=O)[C@H](CCCNC(=N)N)NC(=O)c1sc(Cl)c(Cl)c1Cl [I.008] | 70 to 79% | ≤ 30% | 80 to 89% | 90 to 100% | 90 to 100% | 90 to 100% | > 2 | > 2 |  |  |  |  |  |
| 3.31 |  |  | CCOC(=O)C(C#N)NC(=O)c1sc(Cl)c(Cl)c1Cl (stereo not drawn) [I.009] | 90 to 100% | ≤ 30% | 90 to 100% | 90 to 100% | 90 to 100% | 90 to 100% | > 2 | > 2 | 90 to 100% | 90 to 100% |  |  |  |
| 1.5 |  |  | COC(=O)C(Cc1c[nH]cn1)NC(=O)c1sc(Cl)c(Cl)c1Cl (stereo not drawn) [I.012] |  | ≤ 30% | 80 to 89% | 70 to 79% | 90 to 100% | 90 to 100% | > 2 | > 2 |  | 90 to 100% | ≥ 70% |  |  |
| 2.16 |  |  | COC(=O)[C@H](CC(N)=O)NC(=O)c1sc(Cl)c(Cl)c1Cl [I.015] |  | ≤ 30% | 90 to 100% | 90 to 100% | 90 to 100% |  | > 2 | > 2 |  |  | 80 to 89% |  |  |
| 3.55 |  |  | COC(=O)C(CC(F)F)NC(=O)c1sc(Cl)c(Cl)c1Cl (stereo not drawn) [I.016] | 90 to 100% | ≤ 30% | 90 to 100% | 90 to 100% | 90 to 100% | 90 to 100% | > 2 | > 2 |  | 90 to 100% | 70 to 79% | 80 to 89% |  |
| 3.17 | 3.17 |  | O=C(O)CNC(=S)c1sc(Cl)c(Cl)c1Cl [I.022, N-[(3,4,5-trichloro-2-thienyl)carbonothioyl]glycine] | 90 to 100% | ≤ 30% |  | 90 to 100% | 90 to 100% | 90 to 100% | > 2 |  |  | 90 to 100% |  | 70 to 79% |  |
| 4.05 | 4.05 |  | COC(=O)CNC(=S)c1sc(Cl)c(Cl)c1Cl [I.038, methyl N-[(3,4,5-trichloro-2-thienyl)carbonothioyl]glycinate] | 70 to 79% | ≤ 30% | 80 to 89% | 90 to 100% | 90 to 100% | 90 to 100% |  | > 2 | 80 to 89% | 90 to 100% |  | 90 to 100% |  |
| 2.35 |  |  | CCOC(=O)C(CC(N)=O)NC(=O)c1sc(Cl)c(Cl)c1Cl (stereo not drawn) [I.046] |  | ≤ 30% | 90 to 100% | 90 to 100% | 90 to 100% | 90 to 100% | > 2 | > 2 | 90 to 100% | 90 to 100% |  | 80 to 89% |  |
| 4.27 |  |  | CCOC(=O)C(CC(F)(F)F)NC(=O)c1sc(Cl)c(Cl)c1Cl (stereo not drawn) [I.048] | 70 to 79% | ≤ 30% |  | 90 to 100% | 90 to 100% | 90 to 100% | > 2 | > 2 | 90 to 100% | 80 to 89% |  |  |  |
| 3.5 |  |  | C[C@H](NC(=S)c1sc(Cl)c(Cl)c1Cl)C(=O)O [I.113] |  | ≤ 30% | 80 to 89% | 80 to 89% | 90 to 100% | 90 to 100% | > 2 | > 2 |  | 90 to 100% |  |  |  |
| 2.16 |  |  | C[C@H](NC(=O)c1sc(Cl)c(Cl)c1Cl)C(N)=O [I.119] | 90 to 100% | ≤ 30% |  | 90 to 100% | 90 to 100% |  | > 2 | > 2 |  | 90 to 100% | 70 to 79% | 70 to 79% |  |
|  |  |  | COC(=O)[C@H](CSC(=O)N(C)C)NC(=O)c1sc(Cl)c(Cl)c1Cl [I.142] |  | ≤ 30% | 80 to 89% | 90 to 100% | 90 to 100% |  | > 2 | > 2 | 90 to 100% |  | 70 to 79% | 80 to 89% | 3.56 |
|  |  | 4.29 | CCOC(=O)C(CSC)NC(=O)c1sc(Cl)c(Cl)c1Cl (stereo not drawn) [I.143] |  | ≤ 30% | 90 to 100% | 90 to 100% | 90 to 100% |  | > 2 | > 2 | 80 to 89% |  | 90 to 100% | 70 to 79% |  |
|  |  | 3.28 | COC(=O)C[C@H](NC(=O)c1sc(Cl)c(Cl)c1Cl)C(=O)OC [I.144] |  | ≤ 30% | 80 to 89% | 90 to 100% | 90 to 100% |  | > 2 | > 2 |  |  | 80 to 89% | 80 to 89% |  |
